{Bodipy-C6} = Bodipy fluorophore attached via a 5'-C6 linker
What was measured:
[1] = tested on: viral single-strand DNA of bacteriophage M13 (M13mp18 (+) DNA); experiment: FCS of association of Bodipy-labeled primer with M13 single-strand DNA in solution; assay type: binding; details: 40° C.
Experimental: The oligonucleotide is labeled with Bodipy (Molecular Probes) at the 5′-C6 position. The course of the association reaction with time was measured according to the invention in solution at 40° C. The solution contained 50 nM oligonucleotide, 50 nM of M13mp18 (+) DNA in […] tris buffer, pH 7.5, and 0.18 M sodium chloride. […] Autocorrelation was determined after 0, 0.5, 1, 2, 4, 8, 16, 32, 64, 128, 192, and 256 minutes. The diffusion time of the free primer is 0.17 ms, and 2.9 ms when complex-bound. […] A reassocation rate of 0.07 min^−1 results.

EGF receptor = biological target: T1, EGF receptor (Rattus norvegicus, UniProt G3V6K6); experiment: FCS of tetramethylrhodamine-labeled EGF associating with cell-bound EGF receptor at the outer cell membrane; assay type: binding
T1 construct: endogenous in cells; host or cells: NBD2 rat bladder cells (tumor-derived)
From the text: (§1) FIGS. 26 to 28 show the use of the FCS method according to the invention • (i) for the determination of the behavior of a fluorescence labeled ligand with respect to association with a receptor of the outer cell membrane, • (ii) for distinguishing between bound and free ligand, and/or • (iii) for measuring ligand mobility in the case of a passage into the cytosol.
The cells are surface-fixed on Petri dishes in PBS buffer (phosphate buffered saline). […] For excitation, laser light of 500 nm wavelength of an argon laser (0.5 mW) had been chosen. […] Its concentration was 6 nM.

NBD2 rat bladder cells = experiment: FCS of internalized EGF mobility with the measuring volume in the cytosol; assay type: cell-based; details: FIG. 27
From the text: as §1
The cells are surface-fixed on Petri dishes in PBS buffer (phosphate buffered saline). They had been grown beforehand in standard medium until a confluent monolayer had been reached. The medium contained EGF labeled with tetramethylrhodamine. For excitation, laser light of 500 nm wavelength of an argon laser (0.5 mW) had been chosen. […] Its concentration was 6 nM.

Row | Substance | reassocation rate ([1]; 50 nM oligonucleotide, 50 nM M13mp18 (+) DNA, FIG. 29) [min⁻¹] | diffusion time of the free primer ([1]; 10 nM tris buffer pH 7.5, 0.18 M sodium chloride) [ms] | diffusion time of primer when complex-bound ([1]; bound to M13 DNA) [ms] | EGF receptors per measuring volume still retaining the ligand bound with high affinity (EGF receptor; after 30 minutes of washing, FIG. 26c) | τDfree of free EGF factor (printed as rotational diffusion coefficient) (EGF receptor; free EGF, 6 nM, PBS, FIG. 26a) [ms] | diffusion time τDcomplex of receptor bound complex (EGF receptor; receptor bound in cell membrane, FIG. 26b) [ms] | internalized EGF with the same mobility as the free factor (NBD2 rat bladder cells; cytosol) [%] | internalized EGF hindered in mobility (NBD2 rat bladder cells; measuring volume within the cytosol) [%]
1 | 5′-TGACCGGCAGCAAAATGT-3′ (DNA, 5' {Bodipy-C6}, backbone not given here) [M13/pUC (−21) primer, DNA oligonucleotide primer complementary to bacteriophage M13 single-strand DNA] | 0.07 | 0.17 | 2.9 | – | – | – | – | –
2 | human epidermal growth factor (EGF) | – | – | – | about 0.5 | 0.145 | 14.54 | 62 | 38

From US7534576B2, “Method and a device for the evaluation of biopolymer fitness” (Olympus Corporation, priority 1993, dated 2009)
